pEC50, pIC50: −log10 of the molar value. Like-named read-outs stand apart in the source and are kept apart here.
Columns and labels:
[1] = test system: HCV replicon; assay: HCV replicon FRET assay; format: cell-based; settings: Hepatitis C virus, FRET assay, read-out: EC50*
Outline: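 HCV replicon cells, with or without Renilla luciferase reporter, incubated with titrated compounds at 37 °C; Alamar blue read for cytotoxicity. NS3 protease activity read from lysates with 20 μM EDANS/DABCYL FRET peptide (340/490 nm, kinetic), or by Dual-Glo luciferase. Background from highest protease-inhibitor wells; EC50 = 50% signal reduction.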

[2] = target: T1, HCV NS5B (Hepatitis C virus genotype 1b, UniProt Q9WMX2); assay: HCV NS5B RdRp enzyme assay (preincubation protocol); format: biochemical
T1 construct: The protein was expressed with an 18 amino acid C-terminal truncation to enhance the solubility; made in house; host or cells: E. coli BL21 (DE3), pET21a
T1 sequence (Q9WMX2 2420-2992): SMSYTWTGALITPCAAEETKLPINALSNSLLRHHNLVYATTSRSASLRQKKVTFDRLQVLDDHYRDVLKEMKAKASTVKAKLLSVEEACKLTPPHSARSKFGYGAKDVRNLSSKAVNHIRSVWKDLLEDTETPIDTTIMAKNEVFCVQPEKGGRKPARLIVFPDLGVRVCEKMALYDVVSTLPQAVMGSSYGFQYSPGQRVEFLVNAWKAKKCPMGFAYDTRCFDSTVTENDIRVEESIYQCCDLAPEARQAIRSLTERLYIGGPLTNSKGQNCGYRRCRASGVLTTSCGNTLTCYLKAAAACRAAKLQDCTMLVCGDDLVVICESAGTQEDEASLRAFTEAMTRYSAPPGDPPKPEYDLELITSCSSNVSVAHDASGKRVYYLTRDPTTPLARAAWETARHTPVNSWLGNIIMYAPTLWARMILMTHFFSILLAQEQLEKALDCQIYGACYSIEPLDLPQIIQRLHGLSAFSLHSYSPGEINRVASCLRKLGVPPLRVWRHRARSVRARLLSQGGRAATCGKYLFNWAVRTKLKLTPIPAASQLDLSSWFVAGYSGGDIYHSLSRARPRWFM
Outline: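 Preincubation format: enzyme (14 nM, genotype 1b, 18-residue C-terminal truncation) meets diluted compound first; reaction started with bead-bound biotinylated dT12 primer, polyA template 0.2 nM and 0.29 μM 3H-UTP. Run 4 h, 30 °C in Hepes pH 7.5; scintillation proximity signal; IC50 fitted from seven inhibitor levels.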

SMILES | pEC50 ([1]; Table 1) | pIC50 ([2]; Table 1, read-out: IC50*) | further results
COc1ccc2c(c1)C=C(C(=O)N(C)C[C@@H]1CCCO1)Cn1c-2c(C2CCCCC2)c2ccc(C(=O)NS(=O)(=O)N(C)C)cc21 |  |  | pEC50 ([1]; Table 1a): 6.00 to 7.52; pIC50 ([2]; Table 1a, read-out: IC50*): 6.00 to 8.00
CN(C)S(=O)(=O)NC(=O)c1ccc2c(C3CCCCC3)c3n(c2c1)CC(C(=O)N1C[C@@H]2C[C@H]1CO2)=Cc1ccccc1-3 | 6.00 to 7.15 | 6.00 to 8.00 | 
CN(C)S(=O)(=O)NC(=O)c1ccc2c(C3CCCCC3)c3n(c2c1)CC(C(=O)N1CCN(C(=O)c2ccccc2)CC1)=Cc1ccccc1-3 | 6.00 to 7.15 | 6.00 to 8.00 | 
COC[C@H]1CCCN1C(=O)C1=Cc2ccccc2-c2c(C3CCCCC3)c3ccc(C(=O)NS(=O)(=O)N(C)C)cc3n2C1 | 6.00 to 7.15 | 6.00 to 8.00 | 
CC(C)(C)OC(=O)N1CCN(C(=O)C2=Cc3ccccc3-c3c(C4CCCCC4)c4ccc(C(=O)O)cc4n3C2)CC1 | 6.00 to 7.15 | 6.00 to 8.00 | 
NC(=O)C1CCN(C(=O)C2=Cc3ccccc3-c3c(C4CCCCC4)c4ccc(C(=O)O)cc4n3C2)C1 (centres unmarked) | 5.00 to 6.00 | 6.00 to 8.00 | 
O=C(NCc1cnn[nH]1)c1ccc2c(C3CCCCC3)c3n(c2c1)CC(C(=O)N1CCC(N2CCOCC2)CC1)=Cc1ccccc1-3 [drawing 203] | 5.00 to 6.00 | 6.00 to 8.00 | 
CN(C(=O)C1=Cc2ccccc2-c2c(C3CCCCC3)c3ccc(C(=O)NS(=O)(=O)N(C)C)cc3n2C1)C1CCS(=O)(=O)C1 (centres unmarked) | 6.00 to 7.15 | 6.00 to 8.00 | 
CN(C)S(=O)(=O)NC(=O)c1ccc2c(C3CCCCC3)c3n(c2c1)CC(C(=O)N1CCCC(F)C1)=Cc1ccccc1-3 (centres unmarked) | 6.00 to 7.15 | 6.00 to 8.00 | 
CC(=O)N(C)C1CCN(C(=O)C2=Cc3ccccc3-c3c(C4CCCCC4)c4ccc(C(=O)NS(=O)(=O)N(C)C)cc4n3C2)C1 (centres unmarked) | 6.00 to 7.15 | 6.00 to 8.00 | 
COc1ccc2c(c1)C=C(C(=O)N1CCN(c3ncccn3)CC1)Cn1c-2c(C2CCCCC2)c2ccc(C(=O)NS(=O)(=O)N(C)C)cc21 |  |  | pEC50 ([1]; Table 1b): 6.00 to 7.52; pIC50 ([2]; Table 1b, read-out: IC50*): > 7.70
COc1ccc2c(c1)C=C(C(=O)N1C[C@@H](C)O[C@@H](C)C1)Cn1c-2c(C2CCCCC2)c2ccc(C(=O)NS(=O)(=O)c3ccc(C)cn3)cc21 |  |  | pEC50 ([1]; Table 1b): 6.00 to 7.52; pIC50 ([2]; Table 1b, read-out: IC50*): 6.00 to 7.70
CN(C)S(=O)(=O)NC(=O)c1ccc2c(C3CCCCC3)c3n(c2c1)CC(C(=O)N1CCC(N2CCOCC2)CC1)=Cc1cc(OCc2ccccc2)ccc1-3 [drawing 135] | 6.00 to 7.15 | 6.00 to 8.00 | 
CN(C)S(=O)(=O)NC(=O)c1ccc2c(C3CCCCC3)c3n(c2c1)CC(C(=O)N1CCN(S(C)(=O)=O)CC1)Cc1ccccc1-3 (centres unmarked) | 6.00 to 7.15 | 6.00 to 8.00 | 
O=C(O)c1ccc2c(C3CCCCC3)c3n(c2c1)CC(C(=O)N1CCCC(F)C1)=Cc1ccccc1-3 (centres unmarked) | 5.00 to 6.00 | 6.00 to 8.00 | 
O=C(O)c1ccc2c(C3CCCCC3)c3n(c2c1)CC(NC(=O)N1CCOCC1)Cc1ccccc1-3 (centres unmarked) | 6.00 to 7.15 | 6.00 to 8.00 | 
C[C@@H]1CN(C(=O)NC2Cc3ccccc3-c3c(C4CCCCC4)c4ccc(C(=O)NS(=O)(=O)N(C)C)cc4n3C2)C[C@H](C)O1 (some centres unmarked) | 6.00 to 7.15 | 6.00 to 8.00 | 
COc1ccc2c(c1)C=C(C(=O)N(C)CC(=O)N(C)C)Cn1c-2c(C2CCCCC2)c2ccc(C(=O)O)cc21 | 6.00 to 7.15 | 6.00 to 8.00 | 
COc1ccc2c(c1)C=C(C(=O)N1CCN(S(C)(=O)=O)CC1)Cn1c-2c(C2CCCCC2)c2ccc(C(=O)NS(=O)(=O)N(C)C)cc21 | 6.00 to 7.15 | 6.00 to 8.00 | 
CCN(C(C)=O)C1CCN(C(=O)C2=Cc3ccccc3-c3c(C4CCCCC4)c4ccc(C(=O)NS(=O)(=O)N(C)C)cc4n3C2)C1 (centres unmarked) | 6.00 to 7.15 | 6.00 to 8.00 | 
O=C(O)c1ccc2c(C3CCCCC3)c3n(c2c1)CC(C(=O)N1CCC(C(=O)N2CCCC2)CC1)=Cc1ccccc1-3 | 6.00 to 7.15 | 6.00 to 8.00 | 
O=C(NS(=O)(=O)N1CCN(CC(F)(F)F)CC1)c1ccc2c(C3CCCCC3)c3n(c2c1)CC(C(=O)N1CCOCC1)=Cc1ccccc1-3 [drawing 391] |  |  | pEC50 ([1]; Table 1a): 6.00 to 7.52; pIC50 ([2]; Table 1a, read-out: IC50*): 6.00 to 8.00
CN(C)S(=O)(=O)NC(=O)c1ccc2c(C3CCCCC3)c3n(c2c1)CC(C(=O)N1CC[C@@H](F)C1)=Cc1ccccc1-3 | 6.00 to 7.15 | 6.00 to 8.00 | 

SMILES | pEC50 ([1]; Table 1) | pIC50 ([2]; Table 1, read-out: IC50*) | further results
C[C@@H]1CN(C(=O)NC2Cc3ccccc3-c3c(C4CCCCC4)c4ccc(C(=O)O)cc4n3C2)C[C@H](C)O1 (some centres unmarked) [drawing 143] | 6.00 to 7.15 | 6.00 to 8.00 | 
CC(=O)N1CCN(C(=O)C2=Cc3ccccc3-c3c(C4CCCCC4)c4ccc(C(=O)NS(=O)(=O)N(C)C)cc4n3C2)CC1 | 6.00 to 7.15 | 6.00 to 8.00 | 
COc1ccc2c(c1)C=C(C(=O)N1C[C@@H](C)O[C@@H](C)C1)Cn1c-2c(C2CCCCC2)c2ccc(C(=O)NS(=O)(=O)N3CCC3)cc21 |  |  | pEC50 ([1]; Table 1b): 6.00 to 7.52; pIC50 ([2]; Table 1b, read-out: IC50*): 6.00 to 7.70
COc1ccc2c(c1)C=C(C(=O)N(C)Cc1ccccn1)Cn1c-2c(C2CCCCC2)c2ccc(C(=O)NS(=O)(=O)N(C)C)cc21 |  |  | pEC50 ([1]; Table 1b): 6.00 to 7.52; pIC50 ([2]; Table 1b, read-out: IC50*): 6.00 to 7.70
COC(=O)c1ccc2c(C3CCCCC3)c3n(c2c1)CC(C(=O)N1CCC(N2CC[C@@H](F)C2)CC1)=Cc1ccccc1-3 | < 6.43 | < 6.00 | 
CN(C)S(=O)(=O)NC(=O)c1ccc2c(C3CCCCC3)c3n(c2c1)CC(C(=O)N1CCN(S(C)(=O)=O)CC1)=Cc1cc(OCc2ccccc2)ccc1-3 | 6.00 to 7.15 | 6.00 to 8.00 | 
CN1CCCC(CN(C)C(=O)C2=Cc3ccccc3-c3c(C4CCCCC4)c4ccc(C(=O)N(C)CC5CCCN(C)C5)cc4n3C2)C1 (centres unmarked) | 5.00 to 6.00 | 6.00 to 8.00 | 
COc1ccc2c(c1)C=C(C(=O)N1CC(O)C1)Cn1c-2c(C2CCCCC2)c2ccc(C(=O)NS(=O)(=O)N(C)C)cc21 |  |  | pEC50 ([1]; Table 1b): 6.00 to 7.52; pIC50 ([2]; Table 1b, read-out: IC50*): 6.00 to 7.70
O=C(NS(=O)(=O)N1CCN(CC(F)(F)F)CC1)c1ccc2c(C3CCCCC3)c3n(c2c1)CC(C(=O)N1CCOCC1)=Cc1ccccc1-3 [drawing 395] |  |  | pEC50 ([1]; Table 1b): 6.00 to 7.52; pIC50 ([2]; Table 1b, read-out: IC50*): 6.00 to 7.70
CN(C)S(=O)(=O)NC(=O)c1ccc2c(C3CCCCC3)c3n(c2c1)CC(C(=O)N1CCN(C(=O)C2CC2)CC1)=Cc1ccccc1-3 | 6.00 to 7.15 | 6.00 to 8.00 | 
CN(C)S(=O)(=O)NC(=O)c1ccc2c(C3CCCCC3)c3n(c2c1)CC(C(=O)N1CCC(F)CC1)=Cc1ccccc1-3 [drawing 196] | 6.00 to 7.15 | 6.00 to 8.00 | 
COc1ccc2c(c1)C=C(C(=O)N1CCOC(CNC(C)=O)C1)Cn1c-2c(C2CCCCC2)c2ccc(C(=O)NS(=O)(=O)N(C)C)cc21 (centres unmarked) |  |  | pEC50 ([1]; Table 1a): 6.00 to 7.52; pIC50 ([2]; Table 1a, read-out: IC50*): > 7.70
CN(C)S(=O)(=O)NC(=O)c1ccc2c(C3CCCCC3)c3n(c2c1)CC(C(=O)N1CCC(N2CCOCC2)CC1)Cc1ccccc1-3 (centres unmarked) | 6.00 to 7.15 | 6.00 to 8.00 | 
O=C1Cn2c(c(C3CCCCC3)c3ccc(C(=O)NS(=O)(=O)N4CCOCC4)cc32)-c2ccccc2N1 | 6.00 to 7.15 | 6.00 to 8.00 | 
COc1ccc2c(c1)CC(NC(=O)N(C)CCN(C)C)Cn1c-2c(C2CCCCC2)c2ccc(C(=O)NS(=O)(=O)N(C)C)cc21 (centres unmarked) |  |  | pEC50 ([1]; Table 1b): 6.00 to 7.52; pIC50 ([2]; Table 1b, read-out: IC50*): 6.00 to 7.70
COC(=O)c1ccc2c(C3CCCCC3)c3n(c2c1)CC(NC(=O)N1C[C@@H](C)O[C@@H](C)C1)Cc1ccccc1-3 (some centres unmarked) | < 6.92 | < 6.00 | 
CN(C)S(=O)(=O)NC(=O)c1ccc2c(C3CCCCC3)c3n(c2c1)CC(C(=O)N1CCCC(=O)N1)=Cc1ccccc1-3 [drawing 138] | 6.00 to 7.15 | 6.00 to 8.00 | 
COc1ccc(S(=O)(=O)NC(=O)c2ccc3c(C4CCCCC4)c4n(c3c2)CC(C(=O)N2CCOCC2)=Cc2ccccc2-4)cc1 | 6.00 to 7.15 | 6.00 to 8.00 | 
CC(=O)OCC(=O)N1CCN(C(=O)C2=Cc3ccccc3-c3c(C4CCCCC4)c4ccc(C(=O)NS(=O)(=O)N5CCOCC5)cc4n3C2)CC1 | 6.00 to 7.15 | 6.00 to 8.00 | 
COc1ccc2c(c1)C=C(C(=O)N1C[C@@H](C)O[C@@H](C)C1)Cn1c-2c(C2CCCCC2)c2ccc(C(=O)NS(=O)(=O)N3CCCC3)cc21 |  |  | pEC50 ([1]; Table 1b): 6.00 to 7.52; pIC50 ([2]; Table 1b, read-out: IC50*): 6.00 to 7.70
COCCN(C)C(=O)C1=Cc2ccccc2-c2c(C3CCCCC3)c3ccc(C(=O)NS(=O)(=O)N(C)C)cc3n2C1 | 6.00 to 7.15 | 6.00 to 8.00 | 
COC(=O)c1ccc2c(C3CCCCC3)c3n(c2c1)CC(C(=O)N1CCCC(F)C1)=Cc1ccccc1-3 (centres unmarked) | < 6.43 | 6.00 to 8.00 | 
CC(=O)NC1CCN(C(=O)C2=Cc3ccccc3-c3c(C4CCCCC4)c4ccc(C(=O)O)cc4n3C2)CC1 | 6.00 to 7.15 | 6.00 to 8.00 | 

Reference: patent US7473688B2, “Indolobenzazepine HCV NS5B inhibitors” (Bristol-Myers Squibb Company, priority 2005, dated 2009)
